Experimental data from US8278309B2, “Synthetic mimetics of host defense and uses thereof” (priority 2008, dated 2012).
Structures can show the parent of a compound that is named as a salt.

Assay: Pharmacokinetics in rats
Assay type: in vivo
Settings: Crl:CD (SD), plasma, iv; rat, 5 mg/kg, i.v. bolus
Procedure: Crl:CD (SD) rats were administered Compound A by i.v. bolus injection at the indicated dosages. Plasma was prepared from blood samples taken at 9 time points (n=3) over 28 hours. Compound levels were determine by HPLC-MS/MS. All animals were fitted with two jugular vein cannula (JVC), one each for dose administration and blood collection. Each route of administration was dosed as N=3. Animals were supplied with a commercial rodent diet and water ad libitum. Each rat received a bolus dosed via the appropriate route of administration at time zero on the day of dosing.
Each blood sample was collected from the rats via a JVC and placed into chilled polypropylene tubes containing sodium EDTA as an anticoagulant. Samples were centrifuged at a temperature of 4° C. and at a speed of 13,000 rpm for 5 minutes. Samples were maintained chilled throughout processing. Each plasma sample was then transferred into labeled polypropylene tubes, placed on dry ice, and stored in a freezer set to maintain −60° C. to −80° C.
Plasma study samples were extracted and analyzed using a previously developed method. A single standard curve and six replicates of quality control samples at three concentrations were extracted using DMSO containing 0.1% formic acid. Plasma samples (50 μL) were added to 150 μL solvent and centrifuged. Supernatants were analyzed by LC/MSMS using a Perkin Elmer series 200 micropump and PE Sciex API4000 Electrospray mass spectrometer. Standard curves were prepared at concentrations of 10000, 5000, 1000, 500, 250, 100, 50 and 25 ng/mL. Quality control samples were prepared at concentrations of 5000, 500, and 50 ng/mL. The standard curve and quality control samples were prepared from independently prepared stock solutions. At least ⅝ of standards must have accuracy within ±15%, except at the LLOQ where ±20% is acceptable. Two thirds of the batch QCs must have accuracy within ±15% of nominal, and at least one QC must pass at each level in order for the run to be accepted.
Individual plasma concentration versus time data for Compound A was subjected to non-compartmental analysis using the pharmacokinetic program WinNonlin v4.1. Plasma concentrations below the limit of quantitation (25 ng/ml) were assigned a value of zero for pharmacokinetic analysis. Nominal dosing concentrations were used in all calculations.

N=C(N)NCCCCC(=O)Nc1cc(C(F)(F)F)cc(NC(=O)c2cc(C(=O)Nc3cc(C(F)(F)F)cc(NC(=O)CCCCNC(=N)N)c3O[C@H]3CCNC3)ncn2)c1O[C@H]1CCNC1 [Compound A, pyrimidine-4,6-dicarboxylic acid bis-{[3-(5-guanidino-pentanoylamino)-2-((R)-pyrrolidin-3-yloxy)-5-trifluoromethyl-phenyl]-amide}tetrahydrochloride]
Cmax: 89.2 µg/mL
Vd: 0.11 L/kg
clearance: 0.467 mL/min/kg
half-life: 3 h
